Measurements from patent EP2695874A1, “Myrtucommulone analogues” (Universität des Saarlandes, priority 2012, dated 2014).

Experiments:
[1] = test system: Cell lines; assay: Determination of cell viability by MTT assay (apoptose induction); assay type: cell-based; details: cell line not given, read-out: Apoptose induction (EC50 in µmol l^-1)
Experimental: Example 11 - Determination of cell viability by MTT assay
(I. Tretiakova, D. Blaesius, L. Maxia, S. Wesselborg, K. Schulze-Osthoff, J CinatlJr., M. Michaelis, O. Werz, Apoptosis 2008, 13, 119-131.)
Cell viability was assessed using the MTT assay. Cell lines were incubated at 37°C and 5% CO2 atmosphere with the indicated additives for 5 days. PBMC were treated for 40 h and in some experiments, MM6 cells were only treated for 24 h. DMSO was used as solvent never exceeding 0.5% (vol/vol). Then, MTT reagent was added for 4 h. Thereafter, 100 II SDS solution (20% SDS in a 1:1 (vol by vol) dimethylformamide/ water solution) was added for 4 h. Plates were read on a multiwell scanning spectrophotometer (Victor3 plate reader, PerkinElmer, Rodgau-Juegesheim, Germany) at a wavelength of 620 nm and a reference wavelength of 690 nm. Induction of cell death was determined as the relative reduction of the optical density.

[2] = biological target: T1, 5-LO (Homo sapiens, UniProt P09917); assay: 5-LO product formation in intact PMNLs (cell-based assay); details: 1 µM ionomycin plus 20 µM AA, read-out: 5-LO cell-based assay (IC50 in µmol l^-1)
T1 sequence (P09917 1-674): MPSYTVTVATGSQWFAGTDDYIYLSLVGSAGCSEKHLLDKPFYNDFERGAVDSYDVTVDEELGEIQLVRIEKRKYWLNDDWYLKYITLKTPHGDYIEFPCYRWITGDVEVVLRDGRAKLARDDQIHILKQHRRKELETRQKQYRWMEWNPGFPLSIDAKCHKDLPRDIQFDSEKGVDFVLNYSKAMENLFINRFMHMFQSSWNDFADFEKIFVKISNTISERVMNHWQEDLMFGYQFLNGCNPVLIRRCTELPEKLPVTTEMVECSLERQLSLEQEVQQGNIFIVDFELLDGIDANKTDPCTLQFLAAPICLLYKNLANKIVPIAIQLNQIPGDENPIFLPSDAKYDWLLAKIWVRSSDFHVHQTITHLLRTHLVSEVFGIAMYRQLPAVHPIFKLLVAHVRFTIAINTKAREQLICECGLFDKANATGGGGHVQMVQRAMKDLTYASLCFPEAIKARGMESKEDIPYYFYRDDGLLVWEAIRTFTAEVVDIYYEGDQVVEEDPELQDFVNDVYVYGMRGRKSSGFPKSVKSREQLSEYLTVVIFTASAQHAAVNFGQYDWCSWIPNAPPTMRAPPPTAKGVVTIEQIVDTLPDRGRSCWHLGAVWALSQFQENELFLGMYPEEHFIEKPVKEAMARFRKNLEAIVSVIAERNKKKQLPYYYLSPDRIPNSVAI
Experimental: (§1) To assay 5- and 15-lipoxygease (LO) product formation in intact cells, 7.5 x 10^6 freshly isolated PMNLs were finally resuspended in 1 ml of PGC buffer. After preincubation with the test compounds for 10 min at 37°C, the reaction was started by the addition of 1 µM ionomycin plus 20 µM AA. After 10 min at 37°C, the reaction was stopped with 1 ml of methanol and 30 µl of 1 N HCl, and 200 ng of prostaglandin B1 and 500 µl of PBS were added. Formed AA metabolites were extracted and analyzed by HPLC. To determine product formation of purified 5-LO enzyme, 5-LO protein (0.1 µg in 10 µl) was added to 990 µl of PBS containing 1 mM EDTA and 1 mM ATP on ice and the indicated compounds were added. After 5 to 10 min on ice, the samples were preincubated for 30 s at 37°C and CaCl2 and AA (2 mM and 10 µM, respectively) were added to start the 5-LO reaction. After 10 min, the incubation was terminated and 5-LO product formation was determined as described for the intact cells.

[3] = biological target: T2, mPGES-1 (Homo sapiens, UniProt O14684); assay: Determination of PGE2 synthase activity in microsomes of A549 cells; assay type: biochemical; details: PGH2 substrate, 15 min preincubation at 4°C, read-out: mPGES-1 (IC50 in µmol l^-1)
T2 construct: Determination of PGE2 synthase activity in microsomes of A549 cells; endogenous in cells; host or cells: A549 cells (microsomal membranes)
T2 sequence (O14684 1-152): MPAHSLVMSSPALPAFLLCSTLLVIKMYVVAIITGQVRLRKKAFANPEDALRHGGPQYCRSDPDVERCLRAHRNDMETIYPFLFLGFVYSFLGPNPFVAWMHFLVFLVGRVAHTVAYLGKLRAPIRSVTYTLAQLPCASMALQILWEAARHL
Experimental: Example 9 - Determination of PGE2 synthase activity in microsomes of A549 cells
(A. Koeberle, F. Pollastro, H. Northoff and O. Werz, Br. J. Pharmacol. 2009, 156, 952-961.)
Microsomal membranes were diluted in potassium phosphate buffer (0.1 mol·1^-1, pH 7.4) containing 2.5 mmol·l^-1 glutathione.
Test compounds or vehicle were added, and after 15 min at 4°C the reaction ([…]) was initiated by addition of PGH2 ([…], final concentration). After 1 min at 4°C, the reaction was terminated by using stop solution (100 ml; 40 mmol·l^-1 FeCl2, 80 mmol·l^-1 citric acid and 10 mmol·l^-1 of 11b-PGE2). PGE2 was separated by solid phase extraction on reversed phase (RP)-C18 material by using acetonitrile (200 ml) as eluent, and analysed by RP-HPLC (30% acetonitrile in water + 0.007% TFA (v,v), Nova-Pak® C18 column, 5 x 100 mm, 4 mm particle size, flow rate 1 m-·min^-1) with UV detection at 195 nm. 11b-PGE2 was used as internal standard to quantify PGE2 product formation by integration of the area under the peaks.

[4] = biological target: T1, 5-LO; assay: 5-LO product formation of purified 5-LO enzyme (cell-free assay); assay type: biochemical; details: 10 µM AA, 2 mM CaCl2, read-out: 5-LO cell-free assay (IC50 in µmol l^-1)
Experimental: as §1

Row | SMILES | EC50 [1] | IC50 [2] | IC50 [3] | IC50 [4]
1 | CC(C)C(=O)c1c(O)c(C(C2=C(O)c3ccccc3C2=O)C(C)C)c(O)c(C(C2=C(O)c3ccccc3C2=O)C(C)C)c1O (centres unmarked) [Compound (Ia), 2,2'-(1,1'-(2,4,6-Trihydroxy-5-isobutyryl-1,3-phenylene)bis(2-methylpropane-1,1-diyl))bis(3-hydroxy-1H-inden-1-one)] | > 30 µM | 6700 nM | 300 nM | 2800 nM
2 | CC(C)C(=O)c1c(O)c(C(C2=C(O)c3ccccc3C2=O)c2ccccc2)c(O)c(C(C2=C(O)c3ccccc3C2=O)c2ccccc2)c1O (racemic) [Compound (Ie), 2,2'-(2,4,6-Trihydroxy-5-isobutyryl-1,3-phenylene)bis(phenylmethylene)bis(3-hydroxy-1H-inden-1-one)] | > 30 µM | 620 nM | 550 nM | 730 nM
3 | CCCCCC(=O)c1c(O)c(C(C2=C(O)c3ccccc3C2=O)C(C)C)c(O)c(C(C2=C(O)c3ccccc3C2=O)C(C)C)c1O (centres unmarked) [Compound (Ib), 2,2'-(1,1'-(5-Hexanoyl-2,4,6-trihydroxy-1,3-phenylene)bis(2-methylpropane-1,1-diyl))bis(3-hydroxy-1H-inden-1-one)] | > 30 µM | 1460 nM | 80 nM | 1740 nM
4 | O=C1C(C(c2ccccc2)c2c(O)c(C(=O)c3ccccc3)c(O)c(C(C3=C(O)c4ccccc4C3=O)c3ccccc3)c2O)=C(O)c2ccccc21 (racemic) [(Ih), 2,2'-(5-Benzoyl-2,4,6-trihydroxy-1,3-phenylene)bis(phenylmethylene)bis(3-hydroxy-1H-inden-1-one)] | > 30 µM | 840 nM | 330 nM | 2990 nM
5 | CCCCCC(=O)c1c(O)c(C(C2=C(O)c3ccccc3C2=O)c2ccccc2)c(O)c(C(C2=C(O)c3ccccc3C2=O)c2ccccc2)c1O (racemic) [Compound (Ig), 2,2'-(5-Hexanoyl-2,4,6-trihydroxy-1,3-phenylene)bis(phenylmethylene)bis(3-hydroxy-1H-inden-1-one)] | > 30 µM | 2090 nM | 390 nM | 1100 nM
6 | CC(C)CC(=O)c1c(O)c(C(C2=C(O)c3ccccc3C2=O)C(C)C)c(O)c(C(C2=C(O)c3ccccc3C2=O)C(C)C)c1O (centres unmarked) [Compound (Ic), 2,2'-(1,1'-(2,4,6-Trihydroxy-5-(3-methylbutanoyl)-1,3-phenylene)bis(2-methylpropane-1,1-diyl))bis(3-hydroxy-1H-inden-1-one)] | > 30 µM | 1040 nM | 180 nM | 300 nM
7 | CC(C)C(C1=C(O)c2ccccc2C1=O)c1c(O)c(C(=O)c2ccccc2)c(O)c(C(C2=C(O)c3ccccc3C2=O)C(C)C)c1O (centres unmarked) [Compound (Id), 2,2'-(1,1'-(5-Benzoyl-2,4,6-trihydroxy-1,3-phenylene)bis(2-methylpropane-1,1-diyl))bis(3-hydroxy-1H-inden-1-one)] | > 30 µM | 3230 nM | 680 nM | 6860 nM
8 | CC(C)CC(=O)c1c(O)c(C(C2=C(O)c3ccccc3C2=O)c2ccccc2)c(O)c(C(C2=C(O)c3ccccc3C2=O)c2ccccc2)c1O (racemic) [(If), 2,2'-(2,4,6-Trihydroxy-5-(3-methylbutanoyl)-1,3-phenylene)bis(phenylmethylene)bis(3-hydroxy-1H-inden-1-one)] | > 30 µM | 690 nM | 190 nM | 460 nM
